Assay results taken from patent US20040097595A1, “Phthalamide derivatives, insecticides for agricultural and horticultural use and method for application thereof” (priority 2001, published 2004).

Experiments:
Format in all cases: in vivo
[1] = tested on: Diamond Back Moth (Plutella xylostella); assay: Test Example 1: insecticidal effect on diamond back moth, Chinese cabbage seedling with eggs immersed in liquid chemical; settings: eggs on Chinese cabbage seedling immersed about 30 seconds, six days after immersion, 25° C.
From the text: Insecticidal Effect on Diamond Back Moth (Plutella xylostella)
Adult diamond back moths were released and allowed to oviposit on a Chinese cabbage seedling. Two days after the release, the seedling having the eggs deposited thereon was immersed for about 30 seconds in a liquid chemical prepared by diluting a preparation containing each compound listed in Table 1 or 2 as an active ingredient to adjust the prescribed concentration. After air-dryness, it was allowed to stand in a room thermostatted at 25° C. Six days after the immersion, the hatched insects were counted. The mortality was calculated according to the following equation and the insecticidal effect was judged according to the criterion shown below. The test was carried out with triplicate groups of 10 insects. [formula]

[2] = tested on: Common Cutworm (Spodoptera litura); assay: Test Example 2: insecticidal effect on common cutworm, cabbage leaf immersion; settings: cabbage leaf immersed, second-instar larvae, eight days after inoculation, 25° C.
From the text: (§1) Insecticidal Effect on Common Cutworm (Spodoptera litura)
A piece of cabbage leaf (cultivar; Shikidori) was immersed for about 30 seconds in a liquid chemical prepared by diluting a preparation containing each compound listed in Table 1 or 2 as an active ingredient to adjust the prescribed concentration. After air-dryness, it was placed in a plastic Petri dish with a diameter of 9 cm and inoculated with second-instar larvae of common cutworm, after which the dish was closed and then allowed to stand in a room thermostatted at 25° C. Eight days after the inoculation, the dead and alive were counted. The mortality was calculated according to the following equation and the insecticidal effect was judged according to the criterion shown in Test Example 1. The test was carried out with triplicate groups of 10 insects. [formula]

[3] = tested on: Common Cutworm (Spodoptera litura); assay: Comparative Test Example 1: insecticidal effect on common cutworm, treated synthetic diet; settings: 192 h, synthetic diet treated with 0.5 ml, third-instar larvae, eight days after inoculation
Procedure: as §1
A synthetic diet packed in a plastic Petri dish was treated with 0.5 ml of a liquid chemical prepared by diluting a preparation containing compound 1-51 as an active ingredient to adjust the prescribed concentration, by adding the liquid chemical dropwise to the synthetic diet. The synthetic diet was inoculated with third-instar larvae of common cutworm, after which the dish was closed and then allowed to stand in a room thermostatted at 25° C. Eight days after the inoculation, the dead and alive were counted, and the mortality was calculated according to the following equation. The test was carried out with triplicate groups of 10 insects. [formula]
The compounds described in JP-A-2001-131141 were used as comparative compounds as follows: […]

[4] = tested on: Common Cutworm (Spodoptera litura); assay: Comparative Example 2: insecticidal effect on common cutworm by soil treatment for cabbage; design: concentration or dose not given beside the values; settings: granules in planting holes; leaf cut eleven days after transplanting; first-instar larvae; three days after inoculation
Procedure: Insecticidal Effect on Common Cutworm (Spodoptera litura) by Soil Treatment for Cabbage
At the time of trans-planting cabbage plants (cultivar: YR Seitoku), planting holes were treated with granules prepared from compound 1-51 according to Formulation Example. Eleven days after the transplanting, a leaf was cut off from the cabbage plant, placed in a plastic Petri dish, and then inoculated with 20 first-instar larvae of common cutworm. Thereafter, the dish was closed and then allowed to stand in a room thermostatted at 25° C. Three days after the inoculation, the dead and alive were counted and the mortality was calculated in the same manner as in Comparative Test Example 1.

SMILES | Test Example 1 insecticidal effect (mortality grade) ([1]; 5 ppm) | Test Example 1 insecticidal effect (mortality grade) ([1]; 50 ppm) | Test Example 2 insecticidal effect (mortality grade) ([2]; 5 ppm) | Test Example 2 insecticidal effect (mortality grade) ([2]; 50 ppm) | mortality at 5 ppm [3] [%] | mortality at 50 ppm [3] [%] | mortality at 500 ppm [3] [%] | Mortality, Highest leaf [4] [%] | Mortality, Second highest leaf [4] [%] | Mortality, Third highest leaf [4] [%]
CC(C)(CS(C)(=O)=O)NC(=O)c1c(I)cccc1C(=O)Nc1ccc(OC(F)(F)C(F)OC(F)(F)C(F)(F)C(F)(F)F)cc1Cl (stereo not shown) [Compound 1-83] | A (Mortality 100%) | A (Mortality 100%) | A (Mortality 100%) | A (Mortality 100%) | – | – | – | – | – | –
CSCC(C)(C)NC(=O)c1c(I)cccc1C(=O)Nc1ccc(OC(F)(F)C(F)OC(F)(F)C(F)(F)C(F)(F)F)c(Cl)c1Cl (stereo not shown) [Compound 1-84] | E (Mortality 49-0%) | A (Mortality 100%) | E (Mortality 49-0%) | A (Mortality 100%) | – | – | – | – | – | –
C[S+]([O-])CC(C)(C)NC(=O)c1c(I)cccc1C(=O)Nc1ccc(OC(F)(F)C(F)OC(F)(F)C(F)(F)C(F)(F)F)c(Cl)c1Cl (stereo not shown) [Compound 1-85] | A (Mortality 100%) | A (Mortality 100%) | E (Mortality 49-0%) | A (Mortality 100%) | – | – | – | – | – | –
CC(C)(CS(C)(=O)=O)NC(=O)c1c(I)cccc1C(=O)Nc1ccc(OC(F)(F)C(F)OC(F)(F)C(F)(F)C(F)(F)F)c(Cl)c1Cl (stereo not shown) [Compound 1-86] | A (Mortality 100%) | A (Mortality 100%) | D (Mortality 79-50%) | A (Mortality 100%) | – | – | – | – | – | –
CSCC(C)(C)NC(=O)c1c(I)cccc1C(=O)Nc1ccc(Oc2c(Cl)cc(C(F)(F)F)c(F)c2Cl)cc1Cl [Compound 1-93] | A (Mortality 100%) | A (Mortality 100%) | E (Mortality 49-0%) | C (Mortality 89-80%) | – | – | – | – | – | –
CSCC(C)(C)NC(=O)c1c(I)cccc1C(=O)Nc1ccc(Oc2ccc(C(F)(F)F)cn2)cc1Cl [Compound 1-94] | A (Mortality 100%) | A (Mortality 100%) | E (Mortality 49-0%) | A (Mortality 100%) | – | – | – | – | – | –
CSCC(C)(C)NC(=O)c1c(I)cccc1C(=O)Nc1ccc(Oc2ncc(C(F)(F)F)cc2Cl)cc1Cl [Compound 1-95] | A (Mortality 100%) | A (Mortality 100%) | E (Mortality 49-0%) | A (Mortality 100%) | – | – | – | – | – | –
C[S+]([O-])CC(C)(C)NC(=O)c1c(I)cccc1C(=O)Nc1ccc(Oc2ncc(C(F)(F)F)cc2Cl)cc1Cl (stereo not shown) [Compound 1-96] | A (Mortality 100%) | A (Mortality 100%) | E (Mortality 49-0%) | A (Mortality 100%) | – | – | – | – | – | –
CC(C)(CS(C)(=O)=O)NC(=O)c1c(I)cccc1C(=O)Nc1ccc(Oc2ncc(C(F)(F)F)cc2Cl)cc1Cl [Compound 1-97] | A (Mortality 100%) | A (Mortality 100%) | E (Mortality 49-0%) | A (Mortality 100%) | – | – | – | – | – | –
CSCC(C)(C)NC(=O)c1c(I)cccc1C(=O)Nc1ccc(Oc2ncc(C(F)(F)F)cc2Cl)c(Cl)c1Cl [Compound 1-98] | A (Mortality 100%) | A (Mortality 100%) | E (Mortality 49-0%) | A (Mortality 100%) | – | – | – | – | – | –
CC(C)(CS(C)(=O)=O)NC(=O)c1c(I)cccc1C(=O)Nc1ccc(Oc2ncc(C(F)(F)F)cc2Cl)c(Cl)c1Cl [Compound 1-100] | A (Mortality 100%) | A (Mortality 100%) | E (Mortality 49-0%) | A (Mortality 100%) | – | – | – | – | – | –
CSCC(C)(C)NC(=O)c1c(I)cccc1C(=O)Nc1ccc(SC(F)F)cc1Cl [Compound 1-107] | A (Mortality 100%) | A (Mortality 100%) | E (Mortality 49-0%) | E (Mortality 49-0%) | – | – | – | – | – | –
CSCC(C)(C)NC(=O)c1c(I)cccc1C(=O)Nc1ccc(S(=O)(=O)C(F)(F)F)cc1Cl [Compound 1-111] | A (Mortality 100%) | A (Mortality 100%) | E (Mortality 49-0%) | A (Mortality 100%) | – | – | – | – | – | –
CSCC(C)(C)NC(=O)c1c(I)cccc1C(=O)Nc1ccc(OC(F)(F)F)cc1Cl [Compound A, N^1-[2-chloro-4-(trifluoromethoxy)phenyl]-N^2-(1,1-dimethyl-2-methylthioethyl)-3-iodophthalamide] | – | – | – | – | 5 | 100 | 100 | 0 | 95 | 100
CC(C)(CS(C)(=O)=O)NC(=O)c1c(I)cccc1C(=O)Nc1ccc(OC(F)(F)F)cc1Cl [Compound B, N^1-[2-chloro-4-(trifluoromethoxy)phenyl]-3-iodo-N^2-(1,1-dimethyl-2-methylsulfonylethyl)phthalamide] | – | – | – | – | 0 | 100 | 100 | 0 | 50 | 100
